According to article PMC9506414, “Novel 2,6,9-Trisubstituted Purines as Potent CDK Inhibitors Alleviating Trastuzumab-Resistance of HER2-Positive Breast Cancers” (Pharmaceuticals, 2022):

What was measured:
Assay in all cases: Kinome-wide inhibition profiling
Type in all cases: biochemical
MST2 = target: T1, MST2 (Homo sapiens, UniProt Q13188)
T1 construct: purchased Reaction Biology Corp
Description: (§1) In vitro CDK12/cyclinK assays for all compounds and in vitro kinome-wide inhibition profiling of 30d at 10 μM were performed by a CRO company (Reaction Biology Corp., San Diego, CA, USA).

EGFR = target: T2, EGFR (Homo sapiens, UniProt P00533)
T2 construct: purchased Reaction Biology Corp
Description: as §1

DCAMKL1 = target: T3, DCAMKL1 (Homo sapiens, UniProt O15075)
T3 construct: purchased Reaction Biology Corp
Description: as §1

TLK1 = target: T4, TLK1 (Homo sapiens, UniProt Q9UKI8)
T4 construct: purchased Reaction Biology Corp
Description: as §1

TAK1 = target: T5, TAK1 (Homo sapiens, UniProt O43318)
T5 construct: purchased Reaction Biology Corp
T5 sequence (O43318 1-303 limits assumed): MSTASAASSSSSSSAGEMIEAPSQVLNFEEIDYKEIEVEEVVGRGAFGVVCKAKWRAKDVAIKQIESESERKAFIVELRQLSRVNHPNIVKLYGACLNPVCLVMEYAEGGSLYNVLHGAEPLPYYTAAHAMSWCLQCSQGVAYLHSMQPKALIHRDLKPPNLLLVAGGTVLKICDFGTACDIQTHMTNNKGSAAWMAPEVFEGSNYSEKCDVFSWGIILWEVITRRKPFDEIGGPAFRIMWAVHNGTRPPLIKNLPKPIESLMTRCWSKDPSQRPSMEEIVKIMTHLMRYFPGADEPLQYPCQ
Description: as §1

ACVR1 = target: T6, ACVR1 (Homo sapiens, UniProt Q04771)
T6 construct: purchased Reaction Biology Corp
T6 sequence (Q04771 21-509): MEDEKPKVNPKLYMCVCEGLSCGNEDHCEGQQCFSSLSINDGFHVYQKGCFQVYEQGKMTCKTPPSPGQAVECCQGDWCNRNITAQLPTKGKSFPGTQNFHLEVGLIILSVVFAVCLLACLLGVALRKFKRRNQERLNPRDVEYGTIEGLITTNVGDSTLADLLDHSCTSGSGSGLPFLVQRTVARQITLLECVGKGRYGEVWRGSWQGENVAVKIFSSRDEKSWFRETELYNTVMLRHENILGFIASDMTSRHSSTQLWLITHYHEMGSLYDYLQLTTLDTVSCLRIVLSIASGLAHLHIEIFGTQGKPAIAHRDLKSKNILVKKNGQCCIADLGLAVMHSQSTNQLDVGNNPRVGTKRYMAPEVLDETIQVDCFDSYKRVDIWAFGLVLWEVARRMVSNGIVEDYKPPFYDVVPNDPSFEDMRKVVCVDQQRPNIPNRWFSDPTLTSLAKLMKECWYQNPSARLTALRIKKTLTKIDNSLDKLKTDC
Description: as §1

PBK/TOPK = target: T7, PBK/TOPK (Homo sapiens, UniProt Q96KB5)
T7 construct: purchased Reaction Biology Corp
Description: as §1

[1] = target: T8, RPS6KA5(Kin.Dom.1-N-term) (Homo sapiens, UniProt O75582)
T8 construct: RPS6KA5(Kin.Dom.1-N-term); purchased Reaction Biology Corp
Description: as §1

P38-delta = target: T9, P38-delta (Homo sapiens, UniProt O15264)
T9 construct: purchased Reaction Biology Corp
Description: as §1

LRRK2 = target: T10, LRRK2 (Homo sapiens, UniProt Q5S007)
T10 construct: purchased Reaction Biology Corp
Description: as §1

TSSK1B = target: T11, TSSK1B (Homo sapiens, UniProt Q9BXA7)
T11 construct: purchased Reaction Biology Corp
Description: as §1

CDK6/cyclinD1 = target: T12, CDK6/cyclinD1 (Homo sapiens, UniProt Q00534)
T12 construct: purchased Reaction Biology Corp
Description: as §1

CSNK1G2 = target: T13, CSNK1G2 (Homo sapiens, UniProt P78368)
T13 construct: purchased Reaction Biology Corp
Description: as §1

PKCb1 = target: T14, PKCb1 (Homo sapiens, UniProt P05771)
T14 construct: purchased Reaction Biology Corp
Description: as §1

JNK2 = target: T15, JNK2 (Homo sapiens, UniProt P45984)
T15 construct: purchased Reaction Biology Corp
Description: as §1

S6K1 = target: T16, S6K1 (Homo sapiens, UniProt P23443)
T16 construct: purchased Reaction Biology Corp
Description: as §1

CDK16 = target: T17, CDK16 (Homo sapiens, UniProt Q00536)
T17 construct: purchased Reaction Biology Corp
Description: as §1

ULK2 = target: T18, ULK2 (Homo sapiens, UniProt Q8IYT8)
T18 construct: purchased Reaction Biology Corp
Description: as §1

YES = target: T19, YES (Homo sapiens, UniProt P07947)
T19 construct: purchased Reaction Biology Corp
Description: as §1

FES = target: T20, FES (Homo sapiens, UniProt P07332)
T20 construct: purchased Reaction Biology Corp
Description: as §1

PASK = target: T21, PASK (Homo sapiens, UniProt Q96RG2)
T21 construct: purchased Reaction Biology Corp
Description: as §1

FLT3 = target: T22, FLT3 (Homo sapiens, UniProt P36888)
T22 construct: purchased Reaction Biology Corp
Description: as §1

LYN B = target: T23, LYN B (Homo sapiens, UniProt P07948)
T23 construct: purchased Reaction Biology Corp
Description: as §1

YSK4 = target: T24, YSK4 (Homo sapiens, UniProt Q56UN5)
T24 construct: purchased Reaction Biology Corp
T24 sequence (Q56UN5 whole entry): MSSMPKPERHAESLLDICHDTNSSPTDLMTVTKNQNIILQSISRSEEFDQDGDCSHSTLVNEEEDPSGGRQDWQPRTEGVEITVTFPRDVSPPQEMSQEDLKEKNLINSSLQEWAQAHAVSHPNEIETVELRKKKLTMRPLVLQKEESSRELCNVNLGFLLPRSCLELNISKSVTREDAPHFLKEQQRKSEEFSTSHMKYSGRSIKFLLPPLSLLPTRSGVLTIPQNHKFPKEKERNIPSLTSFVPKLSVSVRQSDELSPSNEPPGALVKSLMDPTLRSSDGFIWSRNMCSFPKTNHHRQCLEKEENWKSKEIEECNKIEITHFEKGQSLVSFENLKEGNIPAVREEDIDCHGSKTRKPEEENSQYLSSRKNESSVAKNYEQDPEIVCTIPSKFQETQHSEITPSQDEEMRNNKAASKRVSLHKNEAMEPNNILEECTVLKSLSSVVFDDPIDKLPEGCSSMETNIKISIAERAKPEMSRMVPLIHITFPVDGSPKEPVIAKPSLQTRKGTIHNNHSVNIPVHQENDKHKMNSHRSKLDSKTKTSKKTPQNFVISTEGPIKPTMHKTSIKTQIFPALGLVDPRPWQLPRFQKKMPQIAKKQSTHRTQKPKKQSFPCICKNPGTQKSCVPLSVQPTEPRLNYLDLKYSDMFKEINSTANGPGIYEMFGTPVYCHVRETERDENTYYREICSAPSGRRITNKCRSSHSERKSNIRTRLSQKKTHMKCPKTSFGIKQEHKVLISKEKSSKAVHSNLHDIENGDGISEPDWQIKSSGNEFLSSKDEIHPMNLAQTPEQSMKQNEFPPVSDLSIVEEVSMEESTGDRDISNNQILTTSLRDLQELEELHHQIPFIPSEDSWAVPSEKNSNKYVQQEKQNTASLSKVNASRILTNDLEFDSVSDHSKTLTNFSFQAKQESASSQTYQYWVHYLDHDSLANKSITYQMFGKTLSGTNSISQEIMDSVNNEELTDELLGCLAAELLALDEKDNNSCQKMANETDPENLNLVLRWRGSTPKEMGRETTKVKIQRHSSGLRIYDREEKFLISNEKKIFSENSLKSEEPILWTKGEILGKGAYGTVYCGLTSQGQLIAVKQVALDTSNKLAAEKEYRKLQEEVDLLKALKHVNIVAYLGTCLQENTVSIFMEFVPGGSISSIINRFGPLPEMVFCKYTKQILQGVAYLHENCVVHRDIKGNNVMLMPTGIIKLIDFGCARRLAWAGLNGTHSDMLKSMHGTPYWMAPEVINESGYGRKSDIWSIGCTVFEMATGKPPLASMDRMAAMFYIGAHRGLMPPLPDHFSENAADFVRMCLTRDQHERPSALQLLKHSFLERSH
Description: as §1

PAK5 = target: T25, PAK5 (Homo sapiens, UniProt Q9P286)
T25 construct: purchased Reaction Biology Corp
Description: as §1

CAMK2g = target: T26, CAMK2g (Homo sapiens, UniProt Q13555)
T26 construct: purchased Reaction Biology Corp
Description: as §1

CSNK1G3 = target: T27, CSNK1G3 (Homo sapiens, UniProt Q9Y6M4)
T27 construct: purchased Reaction Biology Corp
Description: as §1

VRK2 = target: T28, VRK2 (Homo sapiens, UniProt Q86Y07)
T28 construct: purchased Reaction Biology Corp
T28 sequence (Q86Y07 whole entry): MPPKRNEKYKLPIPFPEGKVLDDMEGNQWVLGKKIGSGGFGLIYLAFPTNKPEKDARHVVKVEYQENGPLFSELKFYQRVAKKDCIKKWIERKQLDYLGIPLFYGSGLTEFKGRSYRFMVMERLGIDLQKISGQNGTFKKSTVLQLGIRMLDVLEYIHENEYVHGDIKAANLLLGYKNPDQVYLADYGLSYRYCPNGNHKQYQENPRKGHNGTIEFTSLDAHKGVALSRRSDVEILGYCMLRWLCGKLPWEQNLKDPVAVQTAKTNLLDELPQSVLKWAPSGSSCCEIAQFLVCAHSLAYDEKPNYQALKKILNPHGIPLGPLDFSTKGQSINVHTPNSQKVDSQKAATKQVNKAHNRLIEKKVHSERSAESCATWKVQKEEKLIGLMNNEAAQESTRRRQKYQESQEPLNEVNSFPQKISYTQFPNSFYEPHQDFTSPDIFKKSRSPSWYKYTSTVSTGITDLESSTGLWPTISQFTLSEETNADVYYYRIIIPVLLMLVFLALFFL
Description: as §1

BRK = target: T29, BRK (Homo sapiens, UniProt Q13882)
T29 construct: purchased Reaction Biology Corp
Description: as §1

MST1R = target: T30, MST1R (Homo sapiens, UniProt Q04912)
T30 construct: purchased Reaction Biology Corp
Description: as §1

SNRK = target: T31, SNRK (Homo sapiens, UniProt Q9NRH2)
T31 construct: purchased Reaction Biology Corp
Description: as §1

CSNK1A1L = target: T32, CSNK1A1L (Homo sapiens, UniProt Q8N752)
T32 construct: purchased Reaction Biology Corp
Description: as §1

MARK4 = target: T33, MARK4 (Homo sapiens, UniProt Q96L34)
T33 construct: purchased Reaction Biology Corp
Description: as §1

NEK3 = target: T34, NEK3 (Homo sapiens, UniProt P51956)
T34 construct: purchased Reaction Biology Corp
Description: as §1

WNK2 = target: T35, WNK2 (Homo sapiens, UniProt Q9Y3S1)
T35 construct: purchased Reaction Biology Corp
T35 sequence (Q9Y3S1 whole entry): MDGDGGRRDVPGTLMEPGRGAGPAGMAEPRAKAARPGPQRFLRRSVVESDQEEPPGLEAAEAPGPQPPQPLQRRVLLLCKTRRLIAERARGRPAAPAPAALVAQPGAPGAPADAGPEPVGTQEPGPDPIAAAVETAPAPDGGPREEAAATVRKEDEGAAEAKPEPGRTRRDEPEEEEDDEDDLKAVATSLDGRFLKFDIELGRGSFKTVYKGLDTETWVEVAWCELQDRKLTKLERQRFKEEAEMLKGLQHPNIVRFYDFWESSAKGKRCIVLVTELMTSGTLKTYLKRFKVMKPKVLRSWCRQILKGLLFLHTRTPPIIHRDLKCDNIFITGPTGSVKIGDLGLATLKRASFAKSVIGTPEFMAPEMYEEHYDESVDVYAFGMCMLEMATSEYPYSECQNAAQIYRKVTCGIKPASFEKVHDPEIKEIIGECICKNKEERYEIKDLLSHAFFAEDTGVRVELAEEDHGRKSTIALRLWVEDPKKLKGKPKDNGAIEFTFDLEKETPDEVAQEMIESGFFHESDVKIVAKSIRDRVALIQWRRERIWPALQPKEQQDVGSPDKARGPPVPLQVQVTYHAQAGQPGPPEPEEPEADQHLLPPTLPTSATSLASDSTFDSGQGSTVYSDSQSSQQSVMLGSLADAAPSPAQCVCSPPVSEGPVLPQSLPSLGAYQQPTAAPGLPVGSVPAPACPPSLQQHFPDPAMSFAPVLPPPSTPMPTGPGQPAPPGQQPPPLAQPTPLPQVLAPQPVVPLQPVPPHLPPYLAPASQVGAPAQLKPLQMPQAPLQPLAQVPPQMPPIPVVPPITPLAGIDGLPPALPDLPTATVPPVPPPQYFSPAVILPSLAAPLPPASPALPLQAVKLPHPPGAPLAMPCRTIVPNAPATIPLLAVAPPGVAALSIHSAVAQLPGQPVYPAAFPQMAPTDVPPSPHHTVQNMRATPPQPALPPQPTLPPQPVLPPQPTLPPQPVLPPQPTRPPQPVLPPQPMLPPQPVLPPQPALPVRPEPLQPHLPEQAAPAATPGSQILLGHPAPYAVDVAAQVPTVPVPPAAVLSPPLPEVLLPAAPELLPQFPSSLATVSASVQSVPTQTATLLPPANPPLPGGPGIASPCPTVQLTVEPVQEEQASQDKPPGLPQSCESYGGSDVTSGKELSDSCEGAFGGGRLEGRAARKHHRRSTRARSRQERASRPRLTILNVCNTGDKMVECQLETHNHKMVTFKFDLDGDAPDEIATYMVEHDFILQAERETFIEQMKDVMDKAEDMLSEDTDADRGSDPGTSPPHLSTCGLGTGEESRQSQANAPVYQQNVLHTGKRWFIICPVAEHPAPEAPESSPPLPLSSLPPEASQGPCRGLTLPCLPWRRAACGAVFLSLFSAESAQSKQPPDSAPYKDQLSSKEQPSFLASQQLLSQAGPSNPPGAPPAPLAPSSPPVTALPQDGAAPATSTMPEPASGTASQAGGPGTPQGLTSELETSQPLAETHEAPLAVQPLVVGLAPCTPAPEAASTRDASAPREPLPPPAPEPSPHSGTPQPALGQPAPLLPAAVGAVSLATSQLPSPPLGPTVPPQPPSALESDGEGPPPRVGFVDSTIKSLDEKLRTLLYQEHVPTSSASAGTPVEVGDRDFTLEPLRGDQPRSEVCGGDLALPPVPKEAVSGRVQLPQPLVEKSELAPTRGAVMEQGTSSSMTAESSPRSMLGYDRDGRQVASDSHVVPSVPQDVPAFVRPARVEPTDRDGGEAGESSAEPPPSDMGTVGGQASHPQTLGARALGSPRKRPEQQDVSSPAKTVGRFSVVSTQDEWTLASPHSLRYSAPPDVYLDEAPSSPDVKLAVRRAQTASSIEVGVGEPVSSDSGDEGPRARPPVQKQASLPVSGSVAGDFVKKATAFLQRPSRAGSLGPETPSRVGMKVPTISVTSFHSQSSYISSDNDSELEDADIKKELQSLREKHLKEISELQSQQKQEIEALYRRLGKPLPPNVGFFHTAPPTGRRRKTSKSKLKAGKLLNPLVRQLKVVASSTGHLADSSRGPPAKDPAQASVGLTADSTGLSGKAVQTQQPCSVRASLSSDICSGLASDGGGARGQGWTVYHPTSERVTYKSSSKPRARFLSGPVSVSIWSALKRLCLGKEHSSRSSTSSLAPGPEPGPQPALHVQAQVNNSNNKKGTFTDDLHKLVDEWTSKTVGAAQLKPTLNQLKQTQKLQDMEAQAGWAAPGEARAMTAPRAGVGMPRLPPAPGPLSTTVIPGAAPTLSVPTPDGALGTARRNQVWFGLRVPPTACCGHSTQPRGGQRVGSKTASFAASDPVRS
Description: as §1

PIM3 = target: T36, PIM3 (Homo sapiens, UniProt Q86V86)
T36 construct: purchased Reaction Biology Corp
Description: as §1

TRKC = target: T37, TRKC (Homo sapiens, UniProt Q16288)
T37 construct: purchased Reaction Biology Corp
Description: as §1

INSR = target: T38, INSR (Homo sapiens, UniProt P06213)
T38 construct: purchased Reaction Biology Corp
Description: as §1

TAOK2 = target: T39, TAOK2 (Homo sapiens, UniProt Q9UL54)
T39 construct: purchased Reaction Biology Corp
Description: as §1

AurkB = target: T40, AurkB (Homo sapiens, UniProt Q96GD4)
T40 construct: purchased Reaction Biology Corp
Description: as §1

NEK1 = target: T41, NEK1 (Homo sapiens, UniProt Q96PY6)
T41 construct: purchased Reaction Biology Corp
Description: as §1

PLK2 = target: T42, PLK2 (Homo sapiens, UniProt Q9NYY3)
T42 construct: purchased Reaction Biology Corp
Description: as §1

TIE2 = target: T43, TIE2 (Homo sapiens, UniProt Q02763)
T43 construct: purchased Reaction Biology Corp
Description: as §1

Which remaining activity at 10 µM (MST2) does the source give for `CCn1cnc2c(NCc3ccc(-c4ccccn4)nc3)nc(-c3ccc(N)nc3)nc21` [Compound 30d, N-([2,2′-Bipyridin]-5-ylmethyl)-2-(6-aminopyridin-3-yl)-9-ethyl-9H-purin-6-amine] here?
Its remaining activity at 10 µM is 53.5%.

And the remaining activity at 10 µM (EGFR)?
Its remaining activity at 10 µM is 83.7%.

What about the remaining activity at 10 µM (DCAMKL1) of the same compound?
The remaining activity at 10 µM was 72.6%.

And the remaining activity at 10 µM (TLK1)?
Its remaining activity at 10 µM is 67.8%.

And the remaining activity at 10 µM (TAK1)?
The remaining activity at 10 µM was 98.2%.

What about the remaining activity at 10 µM (ACVR1) of the same compound?
The remaining activity at 10 µM was 118%.

What about the remaining activity at 10 µM (PBK/TOPK) of the same compound?
The remaining activity at 10 µM was 93.5%.

And the remaining activity at 10 µM [1]?
Its remaining activity at 10 µM is 80.5%.

And the remaining activity at 10 µM (P38-delta)?
The remaining activity at 10 µM was 102%.

And the remaining activity at 10 µM (LRRK2)?
Its remaining activity at 10 µM is 17.7%.

And the remaining activity at 10 µM (TSSK1B)?
Its remaining activity at 10 µM is 38%.

What about the remaining activity at 10 µM (CDK6/cyclinD1) of the same compound?
The remaining activity at 10 µM was 24.2%.

What about the remaining activity at 10 µM (CSNK1G2) of the same compound?
The remaining activity at 10 µM was 27%.

What about the remaining activity at 10 µM (PKCb1) of the same compound?
The remaining activity at 10 µM was 89.9%.

What about the remaining activity at 10 µM (JNK2) of the same compound?
The remaining activity at 10 µM was 61.7%.

What about the remaining activity at 10 µM (S6K1) of the same compound?
The remaining activity at 10 µM was 92.1%.

And the remaining activity at 10 µM (CDK16)?
The remaining activity at 10 µM was 17.5%.

What about the remaining activity at 10 µM (ULK2) of the same compound?
The remaining activity at 10 µM was 87.3%.

And the remaining activity at 10 µM (YES)?
The remaining activity at 10 µM was 20.6%.

And the remaining activity at 10 µM (FES)?
The remaining activity at 10 µM was 6.4%.

And the remaining activity at 10 µM (PASK)?
Its remaining activity at 10 µM is 96.3%.

And the remaining activity at 10 µM (FLT3)?
The remaining activity at 10 µM was 40.2%.

And the remaining activity at 10 µM (LYN B)?
Its remaining activity at 10 µM is 54.4%.

What about the remaining activity at 10 µM (YSK4) of the same compound?
The remaining activity at 10 µM was 96.8%.

What about the remaining activity at 10 µM (PAK5) of the same compound?
Its remaining activity at 10 µM is 7.6%.

And the remaining activity at 10 µM (CAMK2g)?
Its remaining activity at 10 µM is 105%.

And the remaining activity at 10 µM (CSNK1G3)?
The remaining activity at 10 µM was 24.4%.

What about the remaining activity at 10 µM (VRK2) of the same compound?
Its remaining activity at 10 µM is 96.6%.

And the remaining activity at 10 µM (BRK)?
Its remaining activity at 10 µM is 46.6%.

And the remaining activity at 10 µM (MST1R)?
The remaining activity at 10 µM was 86.8%.

And the remaining activity at 10 µM (SNRK)?
Its remaining activity at 10 µM is 93%.

What about the remaining activity at 10 µM (CSNK1A1L) of the same compound?
Its remaining activity at 10 µM is 53.1%.

What about the remaining activity at 10 µM (MARK4) of the same compound?
The remaining activity at 10 µM was 66.9%.

What about the remaining activity at 10 µM (NEK3) of the same compound?
Its remaining activity at 10 µM is 86.6%.

What about the remaining activity at 10 µM (WNK2) of the same compound?
The remaining activity at 10 µM was 108%.

And the remaining activity at 10 µM (PIM3)?
Its remaining activity at 10 µM is 86.7%.

What about the remaining activity at 10 µM (TRKC) of the same compound?
Its remaining activity at 10 µM is 54.9%.

What about the remaining activity at 10 µM (INSR) of the same compound?
Its remaining activity at 10 µM is 65.1%.

What about the remaining activity at 10 µM (TAOK2) of the same compound?
Its remaining activity at 10 µM is 23.8%.

What about the remaining activity at 10 µM (AurkB) of the same compound?
Its remaining activity at 10 µM is 73%.

And the remaining activity at 10 µM (NEK1)?
Its remaining activity at 10 µM is 92.3%.

What about the remaining activity at 10 µM (PLK2) of the same compound?
The remaining activity at 10 µM was 107%.

What about the remaining activity at 10 µM (TIE2) of the same compound?
Its remaining activity at 10 µM is 34.8%.
